These results are taken from patent publication US9145424B2, “Treatment of amyotrophic lateral sclerosis” (Northwestern University, priority 2008, dated 2015).

Read-outs that look alike come from different tables or passages of the source. Some results are limits rather than exact numbers.

Data set [1] has as its system PC12 cells that express mutant G93A SOD1. Put plainly: Mutant SOD1-induced cytotoxicity protection assay. As to conditions: for Corresponding % viability: rat, 48 h. On the procedure:
This idea was tested by examining the sensitivity of PC12 cells to SOD1 aggregates in the presence and absence of proteasome inhibitor MG132. PC12 cells expressing no SOD1, wild type SOD1, G85R SOD1 or G93A SOD1 were grown with or without MG132 (FIG. 1).
PC12 cells expressing G93A SOD1 were treated with 100 nM MG132 with or without co-treatment with geldanamycin or radicicol.

The test system of data set [2] is proteasome activity (Ubi-YFP degradation). Put plainly: Proteasome activity assay (Ubi-YFP in HeLa cells). Format: cell-based. The following applies: 25 μM compound, 1 μM MG132. On the procedure: FIG. 7. Arylsulfanyl pyrazolones prevent MG132-induced accumulation of Ubi-YFP. HeLa cells were co-transfected with Ubi-YFP and CMV-CFP plasmids, treated with 1 μM MG132 and 25 μM arylsulfanyl pyrazolones and Ubi-YFP fluorescence intensity normalized to CFP.
Since the CMB-003299 cytotoxicity of SOD1 protein aggregates may involve inhibition of proteasome activity, compounds that stimulate proteasome activity could reverse or prevent mutant SOD1-induced cytotoxicity. Thus, active compounds were tested for the ability to stimulate proteasome activity using a cell line expressing ubiquitin-conjugated YFP [Ubi-YFP 74]. In these cells, increased proteasome activity causes increased degradation of Ubi-YFP and decreased YFP fluorescence. Conversely, compounds that inhibit proteasome activity increase accumulation of Ubi-YFP and enhanced YFP fluorescence. As expected, MG132 augments YFP fluorescence intensity ˜3-fold compared to untreated controls (FIG. 7). […] Protein aggregates are present in the absence of MG132 and aggregation is suppressed following treatment with a provided compound.
HeLa cells (20,000/chamber) were plated on 8 chambered Tissue-tek coverglass pretreated with 1 mg/ml poly-D-lysine and allowed to adhere for 18 h at 37° C./5% CO2. Cells were transfected with 0.2 μg each CMV-CFP and Ubi-YFP plasmids using Lipofectamine 2000 according to manufacturer's instructions. Cells were allowed to express CFP and Ubi-YFP for 18 h followed by a 6 h incubation with test compounds (25 μM). MG132 (1 μM) was added for a final 18 h incubation and Ubi-YFP degradation assessed by fluorescence microscopy. Fluorescence intensity of CFP and YFP was calculated on a cell-by-cell basis from captured images using AxioVision software (Zeiss). YFP fluorescence was normalized to CFP fluorescence.

A short description of data set [3]: In vitro microsomal stability, mouse. Format: in vitro ADME. The following applies: Mouse; for microsomal CLint: mouse, liver microsomes, read-out: CLint (microsomal intrinsic clearance). On the procedure:
(§1) Metabolism (microsome, S9 fraction, CYP450): Liver Cytochrome P450 (CYP450) enzymes are the major route for xenobiotic metabolism and microsomal and hepatocyte stability is the best predictor of pharmacokinetic half-life. Cross-species comparisons of metabolism in liver microsomes can predict potential issues with liver toxicity in humans. Selected active compounds are tested in liver microsomes from efficacy species (mouse), toxicity species (rat, dog, monkey), and humans for metabolic stability.
(§2) CMB-087229 was sent for an evaluation of its in vitro ADME properties.
(§3) Two possible amines, secondary and tertiary AAP analogues, were initially screened in the protection assay (FIG. 30) and for in vitro microsomal stability (Table 1) and Caco-2 permeability (Table 2). […] The solubilities of 2 and 3 were good in aqueous media (≧150 μM), and no precipitation occurred at the highest concentration. The in vitro plasma half-life for both compounds was >60 min.
In general terms: Liver microsomes are a subcellular fraction often used to study metabolism.

A further data set has as its system Caco-2. Put plainly: In vitro Caco-2 permeability. It counts as in vitro ADME. On the procedure:
General Permeability: High membrane permeability is required for effective GI absorption and optimal bioavailability. Passive permeability is typically assessed in the PAMPA artificial membrane assay (Kansy et al., J. Med. Chem. 2002, 45(8), 1712-1722). Cell-based permeability determinations using the Caco-2 cell assay are more resource intensive but more predictive of active transport or efflux in vivo (Artursson et al., Adv. Drug. Deliv. Rev. 2001, 46(1-3), 27-43). Caco-2 assays are performed as needed during SAR development.
On the technique in general: Caco-2 cells form a polarised layer with tight junctions and transporters.

The next data set in a line: Aqueous solubility. It counts as physicochemical. As to conditions: no precipitation at the highest concentration. Here is the method: Solubility: Because compounds are stored in DMSO, it is necessary to determine aqueous solubility of initial hit compounds and their analogs. High solubility in aqueous solution is necessary for high GI absorption, bioavailability, and for chemical formulation. Compounds should be soluble in aqueous solution at >10 μg/ml. Solubility of >50 μg/ml is preferred.

A short description of data set [4]: In vitro microsomal stability, human. Format: in vitro ADME. As to conditions: Human. Here is the method:
as §1, §2, §3

Data set [5] is described as follows: In vitro plasma stability. It counts as in vitro ADME. On the procedure:
Plasma stability: Plasma stability of active compounds is assessed in efficacy species (mouse), toxicity species (rat, dog, monkey), and human cells.

Another data set deals with cortical neurons. Nature of the data set: Cortical neuron assay. Format: cell-based. On the procedure: Selected compounds were tested with cortical neurons—a useful preliminary step prior to the expensive and time-consuming ALS mouse model studies. Although long linker compound 24 and cyclic linker compound 27 are active in the PC12 assay, they are not active with cortical neurons. Compound 3 gave better results than the ether counterpart (1), recovering 100% neuronal activity at 10 μM concentration.

Data set [6] is classed as in vitro ADME. The following applies: male, Sprague Dawley, rat, pH 7.4.
Data set [7] relates to PC12 cells expressing G93A SOD1. Nature of the data set: Sensitivity of PC12 cells to proteasome inhibitor, calcein-AM viability. It counts as cell-based. The following applies: compared with MG132. On the procedure:
FIGS. 1A-C. […] Cell survival was determined using the viability stain calcein-AM.

Setting [8] is: Rattus norvegicus, PC-12, read-out: Best EC50, PC12 G93A SOD1 cells, MG132, calcein-AM viability.
[9] abbreviates: Rattus norvegicus, PC-12, read-out: EC50 after Normalization, normalised with the corresponding 3299 EC50.

What is called EC50 is the concentration at which the effect is half-maximal. Regarding `Cc1cc(SCc2cc(=O)[nH][nH]2)c(C)cc1Cl` [CMB-003299], in [1] (setting [8]), the EC50 was 0.4 µM. The “effect on MG132-induced Ubi-YFP fluorescence” value in data set [2] is “strongly inhibit”.

For the compound `O=c1cc(COc2cccc(-c3ccccc3)c2)[nH][nH]1` [CMB-087643-1], the EC50 in data set [1] (setting [8]) was 8.53 µM; in [1] (setting [9]) it was 2.84 µM. In [1], the Corresponding % viability is 96%.

On to `O=c1cc(COc2cc(-c3ccccc3)cc(-c3ccccc3)c2)[nH][nH]1` [CMB-087644-1], for which the EC50 in [1] (setting [8]) is 11.1 µM; in data set [1] (setting [9]), 3.7 µM. In addition, the Corresponding % viability in data set [1] was determined as 68%.

In the case of `O=c1cc(CN(c2cc(Cl)cc(Cl)c2)S(=O)(=O)c2ccccc2)[nH][nH]1` [CMB-087645-1], the EC50 is 9.04 µM in data set [1] (setting [8]) and 1.43 µM in [1] (setting [9]). Further, the Corresponding % viability in data set [1] is 111%.

As to `O=c1cc(CNc2cc(Cl)cc(Cl)c2)[nH][nH]1` [CMB-087650-1], the EC50 in data set [1] (setting [8]) was 2.11 µM; in [1] (setting [9]), 0.33 µM. The Corresponding % viability in [1] was found to be 128%.

The term microsomal CLint denotes the capacity of the preparation to metabolise the compound, expressed as a volume cleared per time. Turning to `O=c1cc(CNc2cc(Cl)cc(Cl)c2)[nH][nH]1` [Compound 2, 5-((3,5-Dichlorophenylamino)methyl)-1H-pyrazol-3(2H)-one, reference compound], the T1/2 in [3] (NADPH-absent) was 100 min; in data set [3] (NADPH-dependent), 30 min; in [4] (NADPH-absent), above 180 min; in data set [4] (NADPH-dependent), 95 min. The microsomal CLint in data set [3] (NADPH-absent) was found to be 23 µL/min/mg; in data set [3] (NADPH-dependent) it was 78 µL/min/mg; in data set [4] (liver microsomes, NADPH-dependent, read-out: CLint (microsomal intrinsic clearance)), 24 µL/min/mg. Also, in the data set on Caco-2, the “Efflux ratio (B→A)/(A→B)” value was 47.1. In the data set with Caco-2, the “Papp (A→B)” value was 0.6 10^−6 cm/s. Moreover, the “Papp (B→A)” value with Caco-2 is reported as 28.1 10^−6 cm/s. Moreover, the “solubility in aqueous media” value in the data set “Aqueous solubility” was at least 150 µM. For the same compound, the “in vitro plasma half-life” value in [5] is on record as above 60 min.

As to `CN(CCCc1cc(=O)[nH][nH]1)c1cc(Cl)cc(Cl)c1` [Compound 24, 5-(3-((3,5-Dichlorophenyl)(methyl)amino)propyl)-1H-pyrazol-3(2H)-one], the “activity in the cytotoxicity protection assay, in words” value in data set [1] is reported as “active”. The “activity with cortical neurons, in words” value with cortical neurons is reported as “not active”.

In the case of `O=c1[nH][nH]c2c1CN(c1cc(Cl)cc(Cl)c1)CC2` [Compound 27, 5-(3,5-Dichlorophenyl)-4,5,6,7-tetrahydro-1H-pyrazolo[4,3-c]pyridin-3(2H)-one], the “activity in the cytotoxicity protection assay, in words” value in data set [1] was “active”. In addition, the “activity with cortical neurons, in words” value in the data set with cortical neurons is recorded as “not active”.

Regarding `CN(Cc1cc(=O)n(Cc2ccccc2)[nH]1)c1cc(Cl)cc(Cl)c1` [Compound 29, 2-Benzyl-5-(((3,5-dichlorophenyl)(methyl)amino)methyl)-1H-pyrazol-3(2H)-one], the “activity in the cytotoxicity protection assay, in words” value in [1] is listed as “comparable in activity to parent compound 3”.

Consider `CN(Cc1cc(=O)n(C)[nH]1)c1cc(Cl)cc(Cl)c1` [Compound 30, 5-(((3,5-Dichlorophenyl)(methyl)amino)methyl)-2-methyl-1H-pyrazol-3(2H)-one], for which, in data set [1], the “activity in the cytotoxicity protection assay, in words” value is on record as “comparable in activity to parent compound 3”.

With `CN(Cc1cc(=O)[nH]n1C)c1cc(Cl)cc(Cl)c1` [Compound 31, 5-(((3,5-Dichlorophenyl)(methyl)amino)methyl)-1-methyl-1H-pyrazol-3(2H)-one], the “activity in the cytotoxicity protection assay, in words” value in data set [1] is reported as “devoid of activity”.

Take `Cc1c(CN(C)c2cc(Cl)cc(Cl)c2)n(C)n(C)c1=O` [Compound 32, 5-(((3,5-Dichlorophenyl)(methyl)amino)methyl)-1,2,4-trimethyl-1H-pyrazol-3(2H)-one]: the “activity in the cytotoxicity protection assay, in words” value in [1] is on record as “devoid of activity”.

Turning to `CN(Cc1cc(=O)n(C)n1C)c1cc(Cl)cc(Cl)c1` [Compound 33, 5-(((3,5-Dichlorophenyl)(methyl)amino)methyl)-1,2-dimethyl-1H-pyrazol-3(2H)-one], in data set [1], the “activity in the cytotoxicity protection assay, in words” value is on record as “devoid of activity”.

`CN1N=C(CN(C)c2cc(Cl)cc(Cl)c2)C(C)(C)C1=O` [Compound 34, 3-(((3,5-Dichlorophenyl)(methyl)amino)methyl)-1,4,4-trimethyl-1H-pyrazol-5(4H)-one]: in [1], the “activity in the cytotoxicity protection assay, in words” value was “devoid of activity”.

On to `Cc1cc(-c2ccccc2)nnc1NCCN1CCOCC1` [Mina, Minaprine, reference compound], for which the “% Mean ± S.E.” value in data set [6] (0 min, 5 μM) was 100 ± 11.5%; in data set [6] (0 min, 15 μM), 100 ± 7.11%; in [6] (20 min, 15 μM) it was 59.2 ± 14.9%; in data set [6] (40 min, 5 μM) it was 45.2 ± 8.1^ %. The “RR Mean (Response Ratio)” value in data set [6] (0 min, 5 μM) is 0.711; in [6] (0 min, 15 μM), 22.88; in [6] (20 min, 15 μM) it was 13.54; in data set [6] (40 min, 5 μM), 0.321.

With `O=c1cc(CS(=O)(=O)c2ccc(Cl)cc2)[nH][nH]1` [TC-II-70], the “% Mean ± S.E.” value in [6] (0 min, 15 μM) turned out to be 100 ± 12.6%; in data set [6] (20 min, 15 μM), 109 ± 13.3%; in data set [6] (40 min, 15 μM), 84.8 ± 21.8%. Further, the “RR Mean (Response Ratio)” value in data set [6] (0 min, 15 μM) amounted to 0.237; in data set [6] (20 min, 15 μM), 0.261; in data set [6] (40 min, 15 μM), 0.201.

For the compound `O=c1cc(CSCc2ccc(Cl)cc2)[nH][nH]1` [TC-II-123], in data set [1] (setting [8]), the EC50 was 4.2 µM.

On to `O=c1cc(CSCCOc2ccccc2)[nH][nH]1` [TC-II-140], for which the concentration for a half-maximal effect (EC50) in [1] (read-out: Best EC50, PC12 G93A SOD1 cells, MG132, calcein-AM viability) was 6.2 µM.

In the case of `CC(=O)CC(c1ccccc1)c1c(O)c2ccccc2oc1=O` (stereo not shown) [War, warfarin, reference compound], the “% Mean ± S.E.” value in [6] (0 min, 15 μM) turned out to be 100 ± 7.75%; in [6] (60 min, 15 μM), 96.1 ± 7.66%.

With `CC(C)C[C@H](NC(=O)[C@H](Cc1ccccc1)NC(=O)c1cnccn1)B(O)O` [bortezomib], the “sensitivity to proteasome inhibition, in words” value in data set [7] is “Qualitatively similar results”.
